Laboratory results published in ChEMBL document CHEMBL3779883, “Design and Synthesis of Nonpeptide Inhibitors of Hepatocyte Growth Factor Activation” (ACS Med Chem Lett, 2016).
≈ marks a conversion by molar mass, not a printed value.

What was measured:
[1] = Lipophilicity, logD of the compound at pH 7.4 by shake-flask method; type: physicochemical; details: buffer
[2] = Cmax in mouse at 5 mg/kg, po; type: ADME, organism-based; design: dose 5 mg/kg, route oral; details: in vivo
[3] = Oral bioavailability in mouse at 5 mg/kg; type: ADME, organism-based; details: in vivo
[4] = biological target: T1, Hepatocyte growth factor activator serine protease (Homo sapiens, UniProt Q04756); assay: Inhibition of human recombinant hepatocyte growth factor activator using H2N(EEdansyl)GKQLRVVNGG (KDabcyl)-NH2 as substrate by fluorometric analysis; type: single protein
T1 sequence (Q04756 whole entry): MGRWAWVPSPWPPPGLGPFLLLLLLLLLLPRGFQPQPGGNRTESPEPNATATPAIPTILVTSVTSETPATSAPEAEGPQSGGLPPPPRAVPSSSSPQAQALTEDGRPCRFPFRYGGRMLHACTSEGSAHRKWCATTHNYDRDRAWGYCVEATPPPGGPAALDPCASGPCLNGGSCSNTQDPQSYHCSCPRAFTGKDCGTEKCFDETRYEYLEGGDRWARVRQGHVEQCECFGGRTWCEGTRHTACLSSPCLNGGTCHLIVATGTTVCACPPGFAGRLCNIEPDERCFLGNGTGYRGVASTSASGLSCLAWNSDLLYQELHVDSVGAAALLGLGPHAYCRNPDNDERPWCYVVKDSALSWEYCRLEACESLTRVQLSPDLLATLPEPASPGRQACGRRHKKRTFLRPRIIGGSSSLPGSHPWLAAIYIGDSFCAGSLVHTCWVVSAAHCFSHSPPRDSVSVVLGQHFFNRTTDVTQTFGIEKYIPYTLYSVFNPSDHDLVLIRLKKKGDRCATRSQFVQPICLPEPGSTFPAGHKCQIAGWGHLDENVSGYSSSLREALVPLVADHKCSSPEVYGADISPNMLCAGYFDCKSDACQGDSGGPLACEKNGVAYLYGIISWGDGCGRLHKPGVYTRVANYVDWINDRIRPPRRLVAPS

Prothrombin = Prothrombin (Homo sapiens, UniProt P00734); assay: Inhibition of human recombinant thrombin using H2N(EEdansyl)GKQLRVVNGG (KDabcyl)-NH2 as substrate by fluorometric analysis
Serine protease hepsin = Serine protease hepsin (Homo sapiens, UniProt P05981); assay: Inhibition of human recombinant hepsin using H2N(EEdansyl)GKQLRVVNGG (KDabcyl)-NH2 as substrate by fluorometric analysis
Serine protease hepsin, sequence (P05981 1-162 limits assumed): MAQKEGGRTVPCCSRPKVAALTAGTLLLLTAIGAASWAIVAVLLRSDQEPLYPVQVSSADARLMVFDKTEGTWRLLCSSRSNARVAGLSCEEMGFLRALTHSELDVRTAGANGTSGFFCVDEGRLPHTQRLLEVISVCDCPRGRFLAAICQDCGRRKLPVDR
Serine protease hepsin, sequence (P05981 163-417 limits assumed): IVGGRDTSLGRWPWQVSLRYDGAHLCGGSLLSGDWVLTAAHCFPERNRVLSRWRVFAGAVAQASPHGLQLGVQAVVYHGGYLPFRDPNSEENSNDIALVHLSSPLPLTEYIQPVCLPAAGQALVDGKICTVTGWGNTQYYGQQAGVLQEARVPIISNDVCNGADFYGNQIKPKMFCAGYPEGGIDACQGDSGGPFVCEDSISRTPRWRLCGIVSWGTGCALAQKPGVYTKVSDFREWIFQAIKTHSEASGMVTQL

[5] = Half life in mouse liver microsomes by LC/MS analysis; type: ADME
[6] = Kinetic solubility of the compound at pH 7.4; type: physicochemical; details: buffer, read-out: Kinetic_solubility
[7] = Clearance in mouse at 1 mg/kg, iv; type: ADME, organism-based; details: in vivo
[8] = Half life in mouse at 1 mg/kg, iv; type: ADME, organism-based; details: in vivo
[9] = AUC in mouse at 5 mg/kg, po; type: ADME, organism-based; details: in vivo
Coagulation factor X = Coagulation factor X (Homo sapiens, UniProt P00742); assay: Inhibition of human recombinant factor 10a using H2N(EEdansyl)GKQLRVVNGG (KDabcyl)-NH2 as substrate by fluorometric analysis
Coagulation factor X, sequence (P00742 41-179 limits assumed): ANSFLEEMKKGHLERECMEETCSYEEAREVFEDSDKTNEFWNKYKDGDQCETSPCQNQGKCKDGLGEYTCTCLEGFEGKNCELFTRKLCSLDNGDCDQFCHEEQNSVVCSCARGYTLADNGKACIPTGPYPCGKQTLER
Coagulation factor X, sequence (P00742 235-488 limits assumed): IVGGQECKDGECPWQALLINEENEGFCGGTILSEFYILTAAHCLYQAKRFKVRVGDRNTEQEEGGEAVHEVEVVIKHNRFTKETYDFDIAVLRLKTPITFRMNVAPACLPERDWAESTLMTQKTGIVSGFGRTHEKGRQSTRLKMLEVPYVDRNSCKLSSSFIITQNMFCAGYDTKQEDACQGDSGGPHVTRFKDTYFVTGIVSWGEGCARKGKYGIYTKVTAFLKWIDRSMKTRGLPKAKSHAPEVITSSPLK

[10] = AUC in mouse at 1 mg/kg, iv; type: ADME, organism-based; details: in vivo
Trypsin = Trypsin (Homo sapiens, UniProt P07477+P07478+P35030); assay: Inhibition of human recombinant trypsin using H2N(EEdansyl)GKQLRVVNGG (KDabcyl)-NH2 as substrate by fluorometric analysis; type: protein assay
[11] = Half life in human liver microsomes by LC/MS analysis; type: ADME
[12] = biological target: T2, Suppressor of tumorigenicity 14 protein (Homo sapiens, UniProt Q9Y5Y6); assay: Inhibition of human recombinant matripase catalytic domain using H2N(EEdansyl)GKQLRVVNGG (KDabcyl)-NH2 as substrate by fluorometric analysis
T2 sequence (Q9Y5Y6 whole entry): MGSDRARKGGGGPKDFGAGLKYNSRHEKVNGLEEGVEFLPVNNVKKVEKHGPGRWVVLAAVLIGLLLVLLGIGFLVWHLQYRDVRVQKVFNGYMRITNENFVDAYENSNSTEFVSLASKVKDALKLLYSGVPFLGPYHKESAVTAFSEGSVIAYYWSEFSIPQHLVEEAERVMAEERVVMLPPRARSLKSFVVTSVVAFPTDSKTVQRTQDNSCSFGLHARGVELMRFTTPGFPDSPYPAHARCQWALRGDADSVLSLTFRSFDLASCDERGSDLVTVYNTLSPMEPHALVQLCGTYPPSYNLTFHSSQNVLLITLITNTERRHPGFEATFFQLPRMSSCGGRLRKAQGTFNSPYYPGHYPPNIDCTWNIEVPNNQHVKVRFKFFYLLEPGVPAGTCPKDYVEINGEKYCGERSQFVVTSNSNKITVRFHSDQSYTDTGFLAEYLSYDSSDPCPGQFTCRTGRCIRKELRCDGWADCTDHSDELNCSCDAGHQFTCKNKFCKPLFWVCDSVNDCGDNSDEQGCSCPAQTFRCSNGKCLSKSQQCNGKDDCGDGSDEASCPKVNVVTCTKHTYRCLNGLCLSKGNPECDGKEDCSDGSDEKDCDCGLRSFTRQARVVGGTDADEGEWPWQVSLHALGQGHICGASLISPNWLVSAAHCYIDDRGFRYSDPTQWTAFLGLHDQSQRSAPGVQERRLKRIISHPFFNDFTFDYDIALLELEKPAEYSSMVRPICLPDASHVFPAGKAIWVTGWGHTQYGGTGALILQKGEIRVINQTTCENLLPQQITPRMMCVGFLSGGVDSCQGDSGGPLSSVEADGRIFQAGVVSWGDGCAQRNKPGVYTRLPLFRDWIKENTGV

[13] = biological target: Hepatocyte growth factor activator/Serine protease hepsin/Suppressor of tumorigenicity 14 protein (Homo sapiens) (UniProt Q9Y5Y6+P05981+Q04756); assay: Inhibition of matripase/hepsin/hepatocyte growth factor activator-mediated HGF activation in human 18Co fibroblasts assessed as scattering of human DU145 cells after 24 hrs by crystal violet staining method; type: cell-based
Hepatocyte growth factor activator/Serine protease hepsin/Suppressor of tumorigenicity 14 protein (Homo sapiens), sequence (P05981 whole entry, looked up, one chain of several): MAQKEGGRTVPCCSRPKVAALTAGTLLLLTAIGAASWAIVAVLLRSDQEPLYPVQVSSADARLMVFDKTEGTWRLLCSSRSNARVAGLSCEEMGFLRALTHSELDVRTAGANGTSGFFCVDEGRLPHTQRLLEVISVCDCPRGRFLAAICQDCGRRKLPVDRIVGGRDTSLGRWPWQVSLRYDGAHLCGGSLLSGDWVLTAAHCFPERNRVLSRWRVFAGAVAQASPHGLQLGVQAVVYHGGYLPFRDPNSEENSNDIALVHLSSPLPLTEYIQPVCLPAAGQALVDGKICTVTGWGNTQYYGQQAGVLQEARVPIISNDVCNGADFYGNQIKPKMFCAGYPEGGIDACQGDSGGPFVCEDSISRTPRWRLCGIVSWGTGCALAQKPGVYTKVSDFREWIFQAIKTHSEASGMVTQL

[14] = Volume of distribution in mouse at 1 mg/kg, iv; type: ADME, organism-based; details: in vivo

Row | SMILES | logD [1] | Cmax [2] [ng/mL] | bioavailability [3] [%] | Ki [4] [nM] | Ki (Prothrombin) [nM] | Ki (Serine protease hepsin) [nM] | half-life [5] [h] | solubility kinetic [6] [µM] | clearance [7] [mL/min/kg] | half-life [8] [h] | AUC [9] [ng·h/mL] | Ki (Coagulation factor X) [nM] | AUC [10] [ng·h/mL] | Ki (Trypsin) [nM] | half-life [11] [h] | Ki [12] [nM] | inhibition [13] | Vd [14] [L/kg]
1 | CC1CN(c2cccc(C(=N)N)c2)C(=O)N(C2CCN(Cc3ccccc3)CC2)C1 (stereo unspecified) | – | – | – | 9800 | 35900 | 3400 | – | – | – | – | – | 240 | – | 780 | – | 830 | – | –
2 | N=C(N)c1cccc(N2CC(CNC(=O)Cc3ccccc3)CN(CC3CCN(Cc4ccccc4)CC3)C2=O)c1 (stereo unspecified) | – | – | – | 1080 | > 100000 | 310 | – | – | – | – | – | 1550 | – | 590 | – | 1510 | – | –
3 | N=C(N)c1cccc(NC(=O)NC2CCN(Cc3ccccc3)CC2)c1 | – | – | – | 54600 | > 100000 | 53100 | – | – | – | – | – | 5400 | – | 5300 | – | 40500 | – | –
4 | CC1CN(Cc2ccc(C(=N)N)cc2)C(=O)N(C2CCN(Cc3ccccc3)CC2)C1 (stereo unspecified) | – | – | – | 39600 | 82200 | 20800 | – | – | – | – | – | 22800 | – | 4800 | – | 15400 | – | –
5 | CC1CN(CCC2CCN(Cc3ccccc3)CC2)C(=O)N(c2cccc(C(=N)N)c2)C1 (stereo unspecified) | – | – | – | 1110 | > 100000 | 2120 | – | – | – | – | – | 400 | – | 2770 | – | 510 | – | –
6 | N=C(N)c1cccc(N2CC(O)CN(CC3CCN(Cc4ccccc4)CC3)C2=O)c1 (stereo unspecified) | < 2 | – | – | 880 | 21900 | 210 | – | 47 (≈ 19.8 µg/mL) | – | – | – | 850 | – | 390 | – | 280 | Dose-dependent effect | –
7 | CC1CN(Cc2cccc(C(=N)N)c2)C(=O)N(C2CCN(Cc3ccccc3)CC2)C1 (stereo unspecified) | – | – | – | > 100000 | > 100000 | 15100 | – | – | – | – | – | 49400 | – | 4800 | – | 13500 | – | –
8 | N=C(N)c1cccc(N2CC(OCc3ccccc3)CN(CC3CCN(Cc4ccccc4)CC3)C2=O)c1 (stereo unspecified) | < 2 | – | – | 1920 | 29700 | 760 | – | 47 (≈ 24 µg/mL) | – | – | – | 920 | – | 550 | – | 1540 | – | –
9 | N=C(N)c1cccc(N2CC(CNC(=O)c3ccccc3)CN(CC3CCN(Cc4ccccc4)CC3)C2=O)c1 (stereo unspecified) | – | – | – | 1100 | > 100000 | 1100 | – | – | – | – | – | 750 | – | 330 | – | 470 | – | –
10 | N=C(N)c1cccc(N2CC(NS(=O)(=O)c3ccccc3)CN(CC3CCN(Cc4ccccc4)CC3)C2=O)c1 (stereo unspecified) | – | – | – | 520 | 17000 | 670 | – | – | – | – | – | 610 | – | 340 | – | 520 | – | –
11 | COC1CN(CC2CCN(Cc3ccccc3)CC2)C(=O)N(c2cccc(C(=N)N)c2)C1 (stereo unspecified) | < 2 | – | – | 2490 | > 100000 | 760 | – | 47 (≈ 20.5 µg/mL) | – | – | – | 1230 | – | 760 | – | 810 | – | –
12 | CC1CN(c2ccc(C(=N)N)cc2)C(=O)N(C2CCN(Cc3ccccc3)CC2)C1 (stereo unspecified) | – | – | – | 46500 | > 100000 | 61200 | – | – | – | – | – | 25500 | – | 35400 | – | 48900 | – | –

Stronger by Ki [4], values ahead:

Row | logD [1] | Cmax [2] [ng/mL] | bioavailability [3] [%] | Ki [4] [nM] | Ki (Prothrombin) [nM] | Ki (Serine protease hepsin) [nM] | half-life [5] [h] | solubility kinetic [6] [µM] | clearance [7] [mL/min/kg] | half-life [8] [h] | AUC [9] [ng·h/mL] | Ki (Coagulation factor X) [nM] | AUC [10] [ng·h/mL] | Ki (Trypsin) [nM] | half-life [11] [h] | Ki [12] [nM] | inhibition [13] | Vd [14] [L/kg] | SMILES
13 | -0.49 | 4.45 | < 1 | 480 | 11600 | 540 | 4.93 | 91.6 (≈ 38.4 µg/mL) | 38 | 5.8 | 3.31 | 380 | 414 | 430 | 2.7 | 530 | Dose-dependent effect | 4.49 | CC1CN(CC2CCN(Cc3ccccc3)CC2)C(=O)N(c2cccc(C(=N)N)c2)C1 (stereo unspecified)
14 | – | – | – | 440 | 13400 | 530 | – | – | – | – | – | 660 | – | 310 | – | 350 | – | – | N=C(N)c1cccc(N2CC(NS(=O)(=O)Cc3ccccc3)CN(CC3CCN(Cc4ccccc4)CC3)C2=O)c1 (stereo unspecified)
15 | < 2 | – | – | 430 | 2130 | 560 | – | 47 (≈ 24.7 µg/mL) | – | – | – | 180 | – | 100 | – | 850 | – | – | N=C(N)c1cccc(N2CC(COCc3ccccc3)CN(CC3CCN(Cc4ccccc4)CC3)C2=O)c1 (stereo unspecified)
16 | – | – | – | 380 | 42300 | 1120 | – | – | – | – | – | 740 | – | 500 | – | 1280 | – | – | N=C(N)c1cccc(N2CC(NC(=O)Cc3ccccc3)CN(CC3CCN(Cc4ccccc4)CC3)C2=O)c1 (stereo unspecified)
17 | – | – | – | 350 | > 100000 | 720 | – | – | – | – | – | 510 | – | 420 | – | 330 | – | – | CS(=O)(=O)NC1CN(CC2CCN(Cc3ccccc3)CC2)C(=O)N(c2cccc(C(=N)N)c2)C1 (stereo unspecified)
18 | < 2 | – | – | 230 | 7400 | 690 | – | 47 (≈ 20.5 µg/mL) | – | – | – | 250 | – | 150 | – | 580 | Dose-dependent effect | – | N=C(N)c1cccc(N2CC(CO)CN(CC3CCN(Cc4ccccc4)CC3)C2=O)c1 (stereo unspecified)
19 | < 2 | – | – | 160 | 8100 | 920 | – | 47 (≈ 21.1 µg/mL) | – | – | – | 200 | – | 210 | – | 850 | Dose-dependent effect | – | COCC1CN(CC2CCN(Cc3ccccc3)CC2)C(=O)N(c2cccc(C(=N)N)c2)C1 (stereo unspecified)
